Series [1] relates to edema in mouse's foot induced by carrageenan. In words: Depressant action on edema in mouse's foot induced by carrageenan. The series is classed as in vivo, Male Sprague-Dawley rat. The following applies: po, 3 h, 50 mg/kg p.o., read-out: depressant rate of edema rate induced by carrageenan (oral administration), % depression. The method, then: (§1) Regarding the compounds in some of the above Examples and indomethacin, depressant action on edema in mouse's ear and depressant action on edema in mouse's foot being induced by carrageenan are being measured by the following 2 methods. And the results of the depressant action on edema in mouse's ear and depressant action on edema in mouse's foot being induced by carrageenan are shown in Table 5.
2. Measurement of Depressant Action on Edama in Mouse's Foot Induced by Carrageenan
At 1 hour after oral administering to Male-Sprague-Dawley-white mouse, weighing 150˜200 g, with a suspended solution of appropriate amount of sample in 0.5% of carboxymethyl cellulose and 0.2% of TWEN solution, edema on the right foot of mouse was induced by injecting 0.1 ml(1%) of carrageenan-saline solution. Right after the inducement of edema by carrageenan and 3 hours later, the edema rate was estimated by measuring white mouse's foot volume with Displacement Plethysmometer(Ugo Basile, Italy). Carrageenan injection Drug was administered 1 hour before the carrageenan injection. Depressant rate of edema is produced by the following equation 1.
% Depressant rate of edema=(1 ? Vtreated group/ ? Vcontrol group)×100 ? V: change of foot volume [Equation 1]

The subject of a further series is edema in mouse's ear. In words: Depressant action on edema in mouse's ear (TPA-induced, myeloperoxidase). The following applies: topical on ear, TPA 25 μg, 5 hours. Type of series: in vivo, ICR mouse. On the procedure:
as §1
1. Measurement of Depressant Action on Edama in Mouse's Ear
At 30 minutes after coating the left ear of ICR mouse, weighing 20 g, with a solution of appropriate amount of sample in 20 μl of mixed solvent DMSO:acetone(1:9), 25 μg of TPA(tetradecanoylphorbol acetate) was coated on both ears. The determination of depressant action on edama was made in 5 hours later by the number of neutral granulocyte gathering in the ear after inducing TPA inflammation. The number of neutral granulocyte was estimated by measuring the activation of myeloperoxidase.

The next series has as its target T1, COX-2 (Mus musculus, UniProt Q05769).
T1 construct: endogenous in cells; host or cells: peritoneal macrophages of C57BL/6 mouse, aspirin-pretreated, LPS-induced
T1 sequence (Q05769 18-604): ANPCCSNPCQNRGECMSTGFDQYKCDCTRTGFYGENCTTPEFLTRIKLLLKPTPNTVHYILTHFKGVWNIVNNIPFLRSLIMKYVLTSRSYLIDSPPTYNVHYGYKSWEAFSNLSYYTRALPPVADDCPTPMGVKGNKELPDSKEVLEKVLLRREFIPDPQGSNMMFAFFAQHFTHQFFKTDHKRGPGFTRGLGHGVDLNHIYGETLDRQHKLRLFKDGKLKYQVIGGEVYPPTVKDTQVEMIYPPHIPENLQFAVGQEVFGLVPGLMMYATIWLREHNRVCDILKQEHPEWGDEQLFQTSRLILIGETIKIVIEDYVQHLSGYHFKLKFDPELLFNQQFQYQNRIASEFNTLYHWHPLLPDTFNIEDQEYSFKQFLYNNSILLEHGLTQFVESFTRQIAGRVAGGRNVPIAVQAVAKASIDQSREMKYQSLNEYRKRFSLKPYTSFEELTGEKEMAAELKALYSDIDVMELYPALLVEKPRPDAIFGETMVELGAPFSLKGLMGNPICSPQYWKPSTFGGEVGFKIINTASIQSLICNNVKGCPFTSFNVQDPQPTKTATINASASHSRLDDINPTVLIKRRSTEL
In words: Evaluation of COX-2's inhibition efficacy (PGE2 radioimmuno assay, LPS-induced, aspirin-pretreated peritoneal macrophages). Type of series: cell-based, C57BL/6 mouse. In short, it runs like this: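 C57BL/6 mouse peritoneal macrophages, adhered 2 h at 37 °C, were LPS-stimulated to induce COX-2. Cells were then treated 10 min with compound, followed by 10 min with 10 μM arachidonic acid (final). PGE2 in the supernatant was quantified by radioimmunoassay.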

`Cc1ccc(-c2c(-c3ccc(S(C)(=O)=O)cc3)oc3ccccc3c2=O)cc1` [Example 3, 3-(4-Methylphenyl)-2-(4-(methylsulfonyl)phenyl)-4H-1-benzopyran-4-one] displayed a melting point of 225 °C. For the same molecule, the inhibition in vivo at 50 mg/kg in series [1] worked out at 52%. Besides, in the series on edema in mouse's ear, the “depressant rate of ear edema, ED50” value is listed as 1.2 mg/ear, ED50. On COX-2 (0.1 μg/ml), the inhibition at 0.1 µg/mL is 13%. Moreover, on COX-2 (1 μg/ml), the inhibition at 1 µg/mL was 61%. In addition, the inhibition at 10 µg/mL on COX-2 (10 μg/ml) was 72%.

The record behind these values is patent US6340694B1, “Diarylbenzopyran derivatives as cyclooxygenase-2 inhibitors” (Pacific Corporation, priority 1998, dated 2002).
